Test results published in US7476691B2, “Sulfamate benzothiophene derivatives as steroid sulfatase inhibitors” (Laboratoire Theramex, priority 2003, dated 2009).

Key:
[1] = Serum estrogen levels (E1S and E2) in treated rats; format: in vivo, rat; conditions: 24 h after last administration
Protocol: In this study, a last administration was performed 24 hours before the necropsy for E1S and E2 serum levels assays. The uteri were removed, freed of adjacent tissue, wet weighed and immediately deep frozen until the determination of sulfatase activity.
E1S and E2 levels were determined according to the supplier's standard method (DSL, Webster, Tex., USA).

estrone sulfatase [2] = molecular target: T1, estrone sulfatase (Homo sapiens, UniProt P08842); assay: Estrone sulfatase whole-cell assay on MCF-7 cells; format: cell-based; set-up: Whole-cell assays were performed as originally described by Duncan et al. (Cancer Res., 1993, 53: 298-303) on intact MCF-7 cell monolayers; endogenous in cells; host or cells: MCF-7 (human breast adenocarcinoma), intact monolayers; conditions: 20 h treatment, 3H-E1S, read-out: IC50 (nM) ± S.E.M., inhibition of estrone sulfatase
T1 sequence (P08842 22-583): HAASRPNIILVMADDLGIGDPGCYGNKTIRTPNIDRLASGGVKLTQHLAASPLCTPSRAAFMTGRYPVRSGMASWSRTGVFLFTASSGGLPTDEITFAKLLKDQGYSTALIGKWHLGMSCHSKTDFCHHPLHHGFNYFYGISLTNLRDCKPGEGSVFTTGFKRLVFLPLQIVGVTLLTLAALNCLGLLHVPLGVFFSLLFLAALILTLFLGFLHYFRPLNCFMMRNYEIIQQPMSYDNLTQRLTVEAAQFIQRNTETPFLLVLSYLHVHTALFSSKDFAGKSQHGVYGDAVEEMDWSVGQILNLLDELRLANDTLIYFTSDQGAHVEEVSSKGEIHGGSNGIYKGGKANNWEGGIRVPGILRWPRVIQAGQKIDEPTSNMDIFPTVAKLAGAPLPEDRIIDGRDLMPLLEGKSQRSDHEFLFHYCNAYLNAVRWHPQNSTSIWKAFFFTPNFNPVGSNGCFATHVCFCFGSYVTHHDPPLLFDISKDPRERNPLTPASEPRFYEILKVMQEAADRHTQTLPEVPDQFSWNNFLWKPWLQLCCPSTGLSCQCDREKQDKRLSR
Protocol: (§1) Two in vitro models on whole cells were used. […] Moreover, these cells were used in the in vivo model of hormono-dependent induced xenografts.
(§2) Estrone Sulfatase Assay on Cells
(§3) Whole-cell assays were performed as originally described by Duncan et al. (Cancer Res., 1993, 53: 298-303) on intact MCF-7 cell monolayers. Assays were carried out with cells in logarithmic growth phase, on 96-well (JEG-3) or 24-well (MCF-7) microplates. Twenty-four hours (JEG-3) or 72 h (MCF-7) before studies, cells were seeded in decomplemented fetal calf serum (dFCS) supplemented medium. Then, the seeding medium was removed and the cells were rinsed with PBS to eliminate any trace of dFCS. Then, ^3H-E1S was added, followed by test compounds ranging from 10^−12 M to 10^−5 M. After 4 h (JEG-3) or 20 h (MCF-7) of treatment, the medium was transferred into either 96-deep-well microplates (JEG-3) or plastic tubes (MCF-7) and centrifuged at 200×g for 10 min to pellet cells before toluene extraction. A fraction of medium was used for toluene extraction in order to separate conjugated substrate and non-conjugated products. The radioactivity in the toluene phase was measured by liquid scintillation counting (LSC). Finally, estrone sulfatase activity was expressed in pmoles of ^3H-E1+^3H-E2 formed per 4 or 20 hours and per μg DNA and estrone sulfatase inhibition in percentage of control activity without inhibitor.

estrone sulfatase [3] = molecular target: T1, estrone sulfatase; assay: Estrone sulfatase whole-cell assay on JEG-3 cells; format: cell-based; set-up: The JEG-3 cell line, derived from a human placental choriocarcinoma, is spontaneously very rich in human estrone sulfatase; endogenous in cells; host or cells: JEG-3 (human placental choriocarcinoma), intact cells; conditions: 4 h treatment, 3H-E1S, read-out: IC50 (nM) ± S.E.M., inhibition of estrone sulfatase
Protocol: as §1, §2, §3

IC50 (estrone sulfatase [2]): 0.05 ± 0.01 nM
IC50 (estrone sulfatase [3]): 7.7 ± 0.4 nM
Compound: NS(=O)(=O)Oc1ccc2c(c1)S(=O)(=O)C(CC1CCCCCC1)=C2 [Ex 55, Sulfamic acid, 2-cycloheptylmethyl-benzothiophene-6-yl-1,1-dioxide ester]
E1S levels (serum) ([1]; 0.03 mg/kg/day p.o.): 17 ± 2.5 ng/mL
E2 levels (serum) ([1]; 0.03 mg/kg/day p.o.): 31 ± 2.8 pg/mL
E1S levels (serum) ([1]; 0.1 mg/kg/day p.o.): 21 ± 2.4 ng/mL
E2 levels (serum) ([1]; 0.1 mg/kg/day p.o.): 28 ± 1.3 pg/mL
E1S levels (serum) ([1]; 0.3 mg/kg/day p.o.): 69 ± 5.9 ng/mL
E2 levels (serum) ([1]; 0.3 mg/kg/day p.o.): 22 ± 1.2 pg/mL
E1S levels (serum) ([1]; 1 mg/kg/day p.o.): 83 ± 2.5 ng/mL
E2 levels (serum) ([1]; 1 mg/kg/day p.o.): 15 ± 0.9 pg/mL
